Patent US20110319266A1, “HERBICIDAL COMPOSITION” (priority 2009, published 2011)
Several values for one entry are separate records, joined by “and”; a condition that tells them apart may be missing. Equal values may be shown once. Read-outs that look alike come from different tables or passages of the source.

What was measured:
Type in all cases: in vivo
Triticum aestivum = test system: Triticum aestivum
Experimental: (§1) A plastic cup with a diameter of 8 cm and a depth of 6.5 cm was filled with soil. Seeds of wheat (Triticum aestivum) and one or more kinds of test plant selected from Alopecurus myosuroides, Lolium multiflorum, Setaria viridis, Sinapis arvensis and Stellaria media were sowed in the cup, and then grown in a greenhouse until Triticum aestivum was grown in the second to third leaf stage. Then, a test dilution containing predetermined amounts of the present compound, a compound selected from Group A and a compound selected from Group B was sprayed onto the whole plants uniformly. The test dilution was prepared by dissolving a predetermined amount of each compound in a 2% solution of Tween 20 (polyoxyethylene sorbitan fatty acid ester, MP Biomedicals, Inc.) in dimethylformamide and then diluting the solution with water, and then mixing the respective water dilutions thus obtained of the present compound, a compound selected from Group A and a compound selected from Group B. After the spray treatment, the plants were grown in a greenhouse for 21 days.

Sinapis arvensis = test: Test Example 1: greenhouse spray test, herbicidal effect on Sinapis arvensis
Experimental: as §1, with “days. The herbicidal effect was rated in 101 levels from 0 (no effect) to 100 (complete death).” for “days.”

Setaria viridis = test: Test Example 1: greenhouse spray test, herbicidal effect on Setaria viridis
Experimental: as §1, with “days. The herbicidal effect was rated in 101 levels from 0 (no effect) to 100 (complete death).” for “days.”

Lolium multiflorum = test: Test Example 1: greenhouse spray test, herbicidal effect on Lolium multiflorum
Experimental: as §1

Stellaria media = test: Test Example 1: greenhouse spray test, herbicidal effect on Stellaria media
Experimental: as §1

Alopecurus myosuroides = test: Test Example 1: greenhouse spray test, herbicidal effect on Alopecurus myosuroides
Experimental: as §1, with “days. The herbicidal effect was rated in 101 levels from 0 (no effect) to 100 (complete death).” for “days.”

[1] = amount of chemical 20 g/ha, 21 days after spray, scale 0 (no effect) to 100 (complete death)
[2] = amount of chemical 200 g/ha, 21 days after spray, scale 0 (no effect) to 100 (complete death)
[3] = Lolium multiflorum, 504 h, read-out: herbicidal effect on Lolium multiflorum
[4] = Lolium multiflorum, 504 h, amount of chemical 6.3 g/ha, 21 days after spray, scale 0 (no effect) to 100 (complete death), read-out: herbicidal effect on Lolium multiflorum
[5] = amount of chemical 6.3 g/ha, 21 days after spray, scale 0 (no effect) to 100 (complete death)
[6] = amount of chemical 5 g/ha, 21 days after spray, scale 0 (no effect) to 100 (complete death)
[7] = amount of chemical 0.1 g/ha, 21 days after spray, scale 0 (no effect) to 100 (complete death)
[8] = amount of chemical 0.2 g/ha, 21 days after spray, scale 0 (no effect) to 100 (complete death)
[9] = amount of chemical 25 g/ha, 21 days after spray, scale 0 (no effect) to 100 (complete death)
[10] = amount of chemical 3.1 g/ha, 21 days after spray, scale 0 (no effect) to 100 (complete death)
[11] = amount of chemical 0.25 g/ha, 21 days after spray, scale 0 (no effect) to 100 (complete death)

For O=C(O)COc1ccc(Cl)cc1Cl [2,4-D], the “herbicidal effect on Triticum aestivum” value (Triticum aestivum; amount of chemical 25 g/ha) was 0, the “herbicidal effect on Sinapis arvensis” value (Sinapis arvensis; amount of chemical 25 g/ha) was 80 and the “herbicidal effect on Setaria viridis” value (Setaria viridis; amount of chemical 25 g/ha) was 0.

With N#Cc1cc(Br)c(O)c(Br)c1 [Bromoxynil, bromoxynil] the “herbicidal effect on Triticum aestivum” value (Triticum aestivum; [1]) was 0, the “herbicidal effect on Triticum aestivum” value (Triticum aestivum; [2]) was 5 and the pest or weed control at 20 g/ha (Lolium multiflorum; [3]) was 0%. For the same molecule, the pest or weed control at 200 g/ha (Lolium multiflorum; [3]) was 0%, the “herbicidal effect on Stellaria media” value (Stellaria media; [1]) was 0 and the “herbicidal effect on Stellaria media” value (Stellaria media; [2]) was 10.

For COc1nc(C)nc(NC(=O)NS(=O)(=O)c2ccccc2Cl)n1 [Chlorsulfuron], the “herbicidal effect on Alopecurus myosuroides” value (Alopecurus myosuroides; amount of chemical 1 g/ha) was 0.

For O=C(O)c1nc(Cl)ccc1Cl [Clopyralid], the “herbicidal effect on Triticum aestivum” value (Triticum aestivum; amount of chemical 100 g/ha) was 0 and the “herbicidal effect on Alopecurus myosuroides” value (Alopecurus myosuroides; amount of chemical 100 g/ha) was 0.

In the case of CCCCCC(C)OC(=O)COc1ccc(Cl)c2cccnc12 (stereo not drawn) [Cloquintocet-mexyl, cloquintocet-mexyl], the pest or weed control at 6.3 g/ha (Lolium multiflorum; [4]) was 0%, the “herbicidal effect on Sinapis arvensis” value (Sinapis arvensis; [5]) was 0 and the “herbicidal effect on Alopecurus myosuroides” value (Alopecurus myosuroides; amount of chemical 6.3 g/ha) was 0. The “herbicidal effect on Alopecurus myosuroides” value (Alopecurus myosuroides; [5]) was 0 and the “herbicidal effect on Stellaria media” value (Stellaria media; [5]) was 0.

COc1c(Cl)ccc(Cl)c1C(=O)O [Dicamba] was tested, and the pest or weed control at 50 g/ha (Lolium multiflorum; Lolium multiflorum, 504 h, amount of chemical 50 g/ha) was 0%.

With CCOC(=O)c1nc(C(Cl)(Cl)Cl)n(-c2ccc(Cl)cc2Cl)n1 [Fenchlorazole-ethyl, fenchlorazole-ethyl] the pest or weed control at 5 g/ha (Lolium multiflorum; Lolium multiflorum, 504 h, amount of chemical 5 g/ha, 21 days after spray, scale 0 (no effect) to 100 (complete death)) was 0%, the pest or weed control at 6.3 g/ha (Lolium multiflorum; [4]) was 0% and the “herbicidal effect on Sinapis arvensis” value (Sinapis arvensis; [6]) was 0. The “herbicidal effect on Sinapis arvensis” value (Sinapis arvensis; amount of chemical 6.3 g/ha) was 0 and the “herbicidal effect on Setaria viridis” value (Setaria viridis; amount of chemical 6.3 g/ha) was 0.

With COc1ncc(F)c2nc(S(=O)(=O)Nc3c(F)cccc3F)nn12 [Florasulam, florasulam] the “herbicidal effect on Triticum aestivum” value (Triticum aestivum; amount of chemical 0.1 g/ha) was 0, the “herbicidal effect on Triticum aestivum” value (Triticum aestivum; [7]) was 0 and the “herbicidal effect on Triticum aestivum” value (Triticum aestivum; [8]) was 0. The “herbicidal effect on Lolium multiflorum” value (Lolium multiflorum; amount of chemical 0.1 g/ha) was 0, the “herbicidal effect on Lolium multiflorum” value (Lolium multiflorum; [7]) was 0 and the “herbicidal effect on Lolium multiflorum” value (Lolium multiflorum; [8]) was 0.

For Nc1c(Cl)c(F)nc(OCC(=O)O)c1Cl [Fluroxypyr], the “herbicidal effect on Triticum aestivum” value (Triticum aestivum; [9]) was 0, the “herbicidal effect on Alopecurus myosuroides” value (Alopecurus myosuroides; [9]) was 0 and the “herbicidal effect on Stellaria media” value (Stellaria media; [9]) was 40.

For CCc1cc(C)cc(CC)c1-c1c(O)c(C)nn(C)c1=O [I-a-14, 4-(2,6-diethyl-4-methylphenyl)-5-hydroxy-2,6-dimethyl-3(2H)-pyridazinone], the pest or weed control at 25 g/ha (Lolium multiflorum; Lolium multiflorum, 504 h, amount of chemical 25 g/ha, 21 days after spray, scale 0 (no effect) to 100 (complete death)) was 90%, the “herbicidal effect on Sinapis arvensis” value (Sinapis arvensis; [9]) was 60 and the “herbicidal effect on Alopecurus myosuroides” value (Alopecurus myosuroides; [9]) was 90. For the same molecule, the “herbicidal effect on Stellaria media” value (Stellaria media; [9]) was 50.

For CCc1cc(CC)c(-c2c(O)c(C)nn(C)c2=O)c(CC)c1 [I-a-17], the “herbicidal effect on Triticum aestivum” value (Triticum aestivum; [6]) was 5, the “herbicidal effect on Lolium multiflorum” value (Lolium multiflorum; [6]) was 10 and the “herbicidal effect on Sinapis arvensis” value (Sinapis arvensis; [6]) was 30.

For CCc1cc(C)cc(C)c1-c1c(O)c(C)nn(C)c1=O [I-a-18], the “herbicidal effect on Triticum aestivum” value (Triticum aestivum; [5]) was 5, the “herbicidal effect on Lolium multiflorum” value (Lolium multiflorum; [5]) was 60 and the “herbicidal effect on Stellaria media” value (Stellaria media; [5]) was 5.

CCc1cc(C)cc(CC)c1-c1c(OC(C)=O)c(C)nn(C)c1=O [I-b-14] was tested, and the “herbicidal effect on Triticum aestivum” value (Triticum aestivum; [5]) was 5 and the “herbicidal effect on Lolium multiflorum” value (Lolium multiflorum; [5]) was 70.

With CCOC(=O)Oc1c(C)nn(C)c(=O)c1-c1c(CC)cc(C)cc1CC [I-b-18] the “herbicidal effect on Triticum aestivum” value (Triticum aestivum; amount of chemical 25 g/ha) was 10, the “herbicidal effect on Triticum aestivum” value (Triticum aestivum; [9]) was 10 and the “herbicidal effect on Lolium multiflorum” value (Lolium multiflorum; amount of chemical 25 g/ha) was 30. The “herbicidal effect on Lolium multiflorum” value (Lolium multiflorum; [9]) was 30 and the “herbicidal effect on Stellaria media” value (Stellaria media; amount of chemical 25 g/ha) was 5.

CCc1cc(C)cc(CC)c1-c1c(OC(=O)OC)c(C)nn(C)c1=O [I-b-25] was tested, and the “herbicidal effect on Triticum aestivum” value (Triticum aestivum; amount of chemical 25 g/ha) was 5, the “herbicidal effect on Sinapis arvensis” value (Sinapis arvensis; amount of chemical 25 g/ha) was 20 and the “herbicidal effect on Setaria viridis” value (Setaria viridis; amount of chemical 25 g/ha) was 95.

In the case of CCOC(=O)Oc1c(C)nn(C)c(=O)c1-c1c(C)cc(C)cc1CC [I-b-35], the “herbicidal effect on Triticum aestivum” value (Triticum aestivum; amount of chemical 25 g/ha) was 10 and the “herbicidal effect on Alopecurus myosuroides” value (Alopecurus myosuroides; amount of chemical 25 g/ha) was 50.

In the case of CCc1cc(CC)c(-c2c(OC(=O)OC)c(C)nn(C)c2=O)c(CC)c1 [I-b-36], the “herbicidal effect on Triticum aestivum” value (Triticum aestivum; amount of chemical 25 g/ha) was 10 and the “herbicidal effect on Alopecurus myosuroides” value (Alopecurus myosuroides; amount of chemical 25 g/ha) was 50.

CCOC(=O)C1=NN(c2ccc(Cl)cc2Cl)C(C)(C(=O)OCC)C1 (stereo not drawn) [Mefenpyr-diethyl, mefenpyr-diethyl] was tested, and the “herbicidal effect on Triticum aestivum” value (Triticum aestivum; [10]) was 0, the “herbicidal effect on Triticum aestivum” value (Triticum aestivum; amount of chemical 6.3 g/ha) was 0 and the “herbicidal effect on Triticum aestivum” value (Triticum aestivum; [5]) was 0. For the same molecule, the pest or weed control at 3.1 g/ha (Lolium multiflorum; [3]) was 0%, the pest or weed control at 6.3 g/ha (Lolium multiflorum; [3]) was 0% and the “herbicidal effect on Lolium multiflorum” value (Lolium multiflorum; amount of chemical 6.3 g/ha) was 0. For the same molecule, the “herbicidal effect on Stellaria media” value (Stellaria media; [10]) was 0, the “herbicidal effect on Stellaria media” value (Stellaria media; amount of chemical 6.3 g/ha) was 0 and the “herbicidal effect on Stellaria media” value (Stellaria media; [5]) was 0.

For COC(=O)c1ccccc1S(=O)(=O)NC(=O)Nc1nc(C)nc(OC)n1 [Metsulfuron-methyl, metsulfuron-methyl], the “herbicidal effect on Triticum aestivum” value (Triticum aestivum; [7]) was 0, the pest or weed control at 0.1 g/ha (Lolium multiflorum; Lolium multiflorum, 504 h, amount of chemical 0.1 g/ha, 21 days after spray, scale 0 (no effect) to 100 (complete death)) was 0% and the “herbicidal effect on Sinapis arvensis” value (Sinapis arvensis; [7]) was 70.

Cc1nn(C)c(O)c1C(=O)c1ccc(C(F)(F)F)cc1S(C)(=O)=O [Pyrasulfotole, pyrasulfotole] was tested, and the “herbicidal effect on Triticum aestivum” value (Triticum aestivum; [1]) was 15, the “herbicidal effect on Lolium multiflorum” value (Lolium multiflorum; [1]) was 0 and the “herbicidal effect on Sinapis arvensis” value (Sinapis arvensis; [1]) was 70.

In the case of COC(=O)c1sccc1S(=O)(=O)NC(=O)Nc1nc(C)nc(OC)n1 [Thifensulfuron-methyl, thifensulfuron-methyl], the “herbicidal effect on Stellaria media” value (Stellaria media; amount of chemical 1 g/ha) was 50.

In the case of COC(=O)c1ccccc1S(=O)(=O)NC(=O)N(C)c1nc(C)nc(OC)n1 [Tribenuron-methyl, tribenuron-methyl], the “herbicidal effect on Triticum aestivum” value (Triticum aestivum; [11]) was 0, the pest or weed control at 0.25 g/ha (Lolium multiflorum; Lolium multiflorum, 504 h, amount of chemical 0.25 g/ha, 21 days after spray, scale 0 (no effect) to 100 (complete death)) was 0% and the “herbicidal effect on Stellaria media” value (Stellaria media; [11]) was 90 and 80.
